Measured values from patent US20190101539A1, “METABOLOMIC BASED BIOMARKERS FOR COLON CANCER DETECTION” (UNIVERSITY OF SOUTHERN CALIFORNIA, priority 2015, published 2019).

How the values were obtained:
[1] = Degradation kinetics of FOCM metabolites at storage temperatures, Arrhenius model; format: physicochemical; parameters: Ln (K) / Calculated Ln (K) / Calculated K: unit not given here; conditions: for Degradation constant, K: first order, days 0-42
Procedure: This will further enhance the clinical prediction ability. The stability of these plasma vitamin B and folate metabolites were studied to validate the reliability of the assay and the time-dependent effect on the concentration of the analytes in patient samples. Using freshly made samples and assessing their degradation over time, we have established an Arrhenius models that will allow the team to extrapolate the metabolite level over time.
The stability of these metabolites were assessed using accelerated stress conditions which involves determining degradation rates of analytes through monitoring changes in time of their concentration in solution at several predetermined storage temperatures and then analyzing the results in terms of the Arrhenius equation: […]
For a valid Arrhenius model to be developed, a linear plot determining the degradation rate of analyte at given storage temperatures against reciprocals of these temperatures is needed. The pre-exponential factor A, which may be obtained by extrapolating the straight line to zero value of the temperature reciprocal, appears to be affected by factors such as exposure to pollution^7 and light^8, relative humidity during the ageing, and the analytes. The activation energy, directly proportional to the slope of the straight line, represents a measure of sensitivity of the degradation rate of the studied property to temperature changes. The degradation rate of the analytes at ambient conditions can be estimated by extrapolating the Arrhenius plot for the analyte concentration to storage temperature. Combined with a kinetic equation describing changes of the concentration with time, this rate may then be used to estimate the life-expectancy of the analytes.
In order to estimate the degradation rate constant, k, at the storage temperature of the plasma samples (which is usually −80° C.), a degradation experiment was conducted for FOCM metabolites at ambient temperatures of 37° C., 25° C., 4° C. and −20° C. […] All degradation curves were assumed to be first order. All experimental samples were stored and quantified at days 0, 3, 7, 14, 21, 28 and 42 using the developed LCMS assay. The results below (for 4-pyridoxic acid) are an example of the data obtained for each of the FOCM metabolites.

[2] = Evaluation of stabilizing agents for FOCM metabolites; format: physicochemical; conditions: 0.5% ascorbic acid, compared with other stabilizing agents
From the text: A major challenge with the FOCM intermediates during storage and analysis is their poor stability. The metabolites may be unstable through environment exposures such as heat, light and/or oxygen, thereby posing great challenge to determine the actual concentration of these metabolites at the time of collection. These FOCM intermediates make the metabolomics-based assay a very powerful tool to a more accurate quantification. The instability of these vitamins pose a great challenge due to their poor stability in the presence of metallic ions, oxidative species and light which catalyze most of the degradation reactions. Most of the vitamin B and folate metabolites degrade due as a consequence of photooxidation reactions which becomes a challenge for assay development necessitating the provision of the most suitable conditions for storage and processing of the plasma samples in order to produce a highly sensitive and reliable assay method. In order to address the instability issues during sample processing, the analysis will be conducted on at 4° C. using black eppendorf tubes. […] Consistent metabolites extraction is achieved using protein precipitation approach followed by the supernatant evaporated to dryness under nitrogen. […]

[3] = −80 °C, extrapolated from Arrhenius model

Compound: Cc1ncc(CO)c(C(=O)O)c1O [4-Pyridoxic acid]
- Ln (K) ([1]; 4 °C): −4.164
- Calculated K ([1]; 4 °C, Arrhenius model): 0.014
- Calculated Ln (K) ([1]; 4 °C, Arrhenius model): −4.302
- Degradation constant, K ([1]; 4 °C): 0.016
- Ln (K) ([1]; 25 °C): −4.019
- Calculated K ([1]; 25 °C, Arrhenius model): 0.019
- Calculated Ln (K) ([1]; 25 °C, Arrhenius model): −3.977
- Degradation constant, K ([1]; 25 °C): 0.018
- Ln (K) ([1]; 37 °C): −3.841
- Calculated K ([1]; 37 °C, Arrhenius model): 0.022
- Calculated Ln (K) ([1]; 37 °C, Arrhenius model): −3.810
- Degradation constant, K ([1]; 37 °C): 0.021
- A, Arrhenius pre-exponential factor ([1]; Arrhenius plot): 1.37
- Ln(A) ([1]; Arrhenius plot intercept): 0.3183
- Ln (K) ([1]; −20 °C): −4.806
- Calculated K ([1]; −20 °C, Arrhenius model): 0.009
- Calculated Ln (K) ([1]; −20 °C, Arrhenius model): −4.741
- Degradation constant, K ([1]; −20 °C): 0.008
- Calculated K [1, 3]: 0.002
- Calculated Ln (K) [1, 3]: −6.313
- E, activation energy ([1]; −slope*R of Arrhenius plot): 10.6 KJmol^−1

Compound: O=C1O[C@H]([C@@H](O)CO)C(O)=C1O [ascorbic acid]
- Stabilization of FOCM metabolites from oxidation [2]: more effective in stabilizing the FOCM metabolites from oxidation
